Here are results for four molecules from article PMC11191402, “High-Affinity NIR-Fluorescent Inhibitors for Tumor Imaging via Carbonic Anhydrase IX” (Bioconjugate Chemistry, 2024).

The target of one series is T1, human recombinant CAI (Homo sapiens, UniProt P00915).
T1 construct: made in house; host or cells: bacterial expression system
Description: Fluorescence-based thermal shift assay (FTSA), CAI. It is filed as binding. As to conditions: 37 °C, pH 7.0. The procedure:
(§1) The binding affinities of the four NIR-fluorescent compounds to 12 catalytically active recombinant CA isozymes were determined by the fluorescence-based thermal shift assay (FTSA), and the dissociation constants (Kd’s) at physiological pH (pH 7.0) and 37 °C are listed in Table 1.
(§2) All 12 catalytically active human CA isozymes were prepared recombinantly as previously described. Most isozymes were truncated, and only the catalytic domains of the proteins were produced.[9],[56] All isozymes were expressed in a bacterial expression system except that CAIX was expressed in mammalian cells. The proteins were chromatographically purified via immobilized metal affinity chromatography, ion-exchange, or p-aminomethylbenzenesulfonamide-sepharose affinity chromatography. Protein purity was confirmed by SDS-PAGE, and MW was confirmed by mass spectrometry with 1 Da precision, as predicted from theoretical protein sequence.
(§3) The fluorescence-based thermal shift assay (FTSA) was used to determine the binding affinity of compounds for all catalytically active CA isozymes. […] The CA isozyme melting temperature Tm was determined by following the fluorescence of 8-anilino-1-naphthalenesulfonate (ANS) or Glomelt dye. […]

For another series, the target named is T2, human recombinant CAXIV (Homo sapiens, UniProt Q9ULX7).
T2 construct: Most isozymes were truncated, and only the catalytic domains of the proteins were produced; made in house; host or cells: bacterial expression system
T2 sequence (Q9ULX7 20-278 limits assumed): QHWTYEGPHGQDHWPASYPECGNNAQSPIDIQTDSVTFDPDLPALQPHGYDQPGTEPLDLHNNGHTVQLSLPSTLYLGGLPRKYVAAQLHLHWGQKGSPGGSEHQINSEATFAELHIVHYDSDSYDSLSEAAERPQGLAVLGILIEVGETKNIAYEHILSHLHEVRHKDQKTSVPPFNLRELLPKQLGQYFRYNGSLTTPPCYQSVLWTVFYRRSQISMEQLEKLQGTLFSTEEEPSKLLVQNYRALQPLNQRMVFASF
Description: Fluorescence-based thermal shift assay (FTSA), CAXIV. As to conditions: 37 °C, pH 7.0. It is filed as binding. The procedure:
as §1, §2
The fluorescence-based thermal shift assay (FTSA) was used to determine the binding affinity of compounds for all catalytically active CA isozymes. The assay is based on the thermal stabilization of proteins by bound ligands and distinguishes itself in its ability to determine extremely high affinity (picomolar Kd) of compound binding to CAIX. The experiments were performed with a QIAGEN Rotor-Gene Q instrument using either the blue channel (365 ± 20 nm excitation and 460 ± 15 nm emission detection) or the green channel (470 ± 10 nm excitation and 510 ± 5 nm detection). The protein solution, in the absence and presence of various compound concentrations ranging from 3 to 200 μM (2× dilutions), was heated from 25 to 99 °C (heating rate, 1 °C/min). The CA isozyme melting temperature Tm was determined by following the fluorescence of 8-anilino-1-naphthalenesulfonate (ANS) or Glomelt dye. The samples consisted of 5 μM protein (or 10 μM CAIV), different concentrations of the tested compound, and 50 μM ANS or 200× diluted Glomelt in 50 mM sodium phosphate buffer (at pH 7.0) containing 100 mM sodium chloride and 2–4% (v/v) dimethyl sulfoxide. To obtain the dissociation constant (at 37 °C), data analysis was performed, and the curves were fit using the Thermott Web server.[57]

The target in series [1] is T3, cell-expressed CAIX (HeLa cells grown under hypoxia) (Homo sapiens, UniProt Q16790).
T3 construct: The cells were grown under hypoxia and not transfected; endogenous in cells; host or cells: HeLa cells, 3 days under hypoxia, not transfected
Description: Competition assay with fluorescein-labeled GZ19-32 in live hypoxia-grown HeLa cells. It is filed as binding. As to conditions: 10 nM GZ19-32, Pt 2 nM CAIX. The procedure:
Hypoxia-grown HeLa cell culture expressed approximately 2 nM CAIX, which was quantified by fluorescein-labeled GZ19-32 added at a constant concentration of 10 nM throughout the assay. The four NIR-fluorescent compounds were dosed and competed with the GZ19-32 compound in a dose-dependent manner. At high concentrations, all four compounds fully outcompeted the fluorescein-bearing compound yielding nice competition curves (Figure 2B). Each curve was fit using the total protein CAIX (Pt) value of 2 nM, and the Kd of GZ19-32 was 200 pM. The dissociation constants for each NIR-fluorescent compound were 4 nM for GZ21-19, 6 nM for GZ22-1, 1.5 nM for GZ22-4, and 15 nM for AZ21-6. Thus, compound affinities were similar but not identical, despite having identical headgroups. […] The affinity of fluorescein-bearing GZ19-32 was the highest of all, around 200 pM.
For the competition assay, live cells were seeded in 12-well plates and incubated for 3 days under hypoxia. 200 μL of serially diluted NIR-fluorescent compound (12 2-fold dilution steps) in the PBS medium, starting from 5120 nM (5120, 2560, 1280,..., 0 nM), was mixed with 200 μL of 20 nM GZ19-32 solution (PBS). After the removal of growth medium, 200 μL obtained solutions were applied to the cells grown in 12-well culture plates. Plates were incubated in the CO2 incubator at normoxia for 20 min. The solution was removed, and cells were washed 3 times for 1–2 min with 400 μL of PBS. Then, 180 μL of TrypLe express enzyme (Thermo Fisher) was added to each well and incubated in the normoxia chamber for 10 min. Then, 20 μL of Defined Trypsin Inhibitor solution (Thermo Fisher) was added and cells were resuspended by pipetting. 150 μL of the suspension from each well was transferred to Thermo Scientific Nunc MicroWell 96-Well Optical-Bottom Plates for fluorescence and absorbance measurements. 485 nm excitation and 520 nm emission wavelengths were used to measure fluorescence on a Synergy HTX, BioTek plate reader. 650 nm wavelength was used for absorbance measurements.

In series [2] the test system is HeLaCAIX^WT versus HeLaCAIX^KO tumors. Briefly: NIR imaging of HeLa xenograft tumors in nude mice. As to conditions: for compound uptake in HeLaCAIX^WT tumors compared to HeLaCAIX^KO tumors: I.V. 2 mg/kg once, imaged every 24 h. The series is classed as in vivo. The procedure: The HeLaCAIX^WT and HeLaCAIX^KO cells were injected subcutaneously (S.Q.) into opposite flanks of nude mice, 3 × 10^6 cells per injection. Once tumors reached the palpable size, we performed imaging using the UVITEC AllianceQ9 Imager system. The images were obtained every 24 h after intravenous (I.V.) compound injection into a tail vein. To analyze fluorescent compound uptake, two best candidate compounds were chosen, AZ21-6 and GZ22-4. Compound GZ22-4 was selected because of the photostability and good quantum yield (Table S1), and the fluorescence maximum of AZ21-6 closely resembled the center of the NIR filter of the imaging system. Both compounds had the best solubility properties and good in vitro binding to cells.
Female nude mice (CR ATH HO Code 24106216), 5–6 weeks old, were obtained from Charles River Laboratories. Animals were housed, bred, and handled in the Department of Animal Models Animal Facility at the Life Sciences Center, Vilnius University, Lithuania, with a 12 h light–dark cycle, at 21–23 °C and 40–60% humidity. Animals were fed with an irradiated cholorophyll-deficient diet (Altromin, #C1086194) and water ad libitum. All experimental procedures conformed to Directive 2010/63/EU requirements and were approved by the Lithuanian State Food and Veterinary Service (Approval no G2-194, 2021-11-09).
Before injection into animals, mycoplasma-free cells in the exponential growth phase were harvested, washed, and resuspended in PBS. 8–12 weeks old female nude mice were inoculated S.Q. with 3 × 10^6 HeLaCAIX^WT cells in 100 μL of PBS into the right flank of the mice, and the same number of HeLaCAIX^KO cells were injected into the left flank of the same mouse. Once tumors reached a suitable size for imaging, GZ22-4 or AZ21-6 compounds were injected I.V. at a dose of 2 mg/kg/dose once. Mice were imaged every 24 h postinjection using isoflurane anesthesia with an Alliance^TM bQ9 Imager system. Images were quantified using the UVIBAND MAX analysis software system. […]

The next series concerns the target T4, human recombinant CAVB (Homo sapiens, UniProt Q9Y2D0).
T4 construct: Most isozymes were truncated, and only the catalytic domains of the proteins were produced; made in house; host or cells: bacterial expression system
Briefly: Fluorescence-based thermal shift assay (FTSA), CAVB. It is filed as binding. To be noted: 37 °C, pH 7.0. The procedure:
as §1, §2, §3

T1 sequence (P00915 whole entry): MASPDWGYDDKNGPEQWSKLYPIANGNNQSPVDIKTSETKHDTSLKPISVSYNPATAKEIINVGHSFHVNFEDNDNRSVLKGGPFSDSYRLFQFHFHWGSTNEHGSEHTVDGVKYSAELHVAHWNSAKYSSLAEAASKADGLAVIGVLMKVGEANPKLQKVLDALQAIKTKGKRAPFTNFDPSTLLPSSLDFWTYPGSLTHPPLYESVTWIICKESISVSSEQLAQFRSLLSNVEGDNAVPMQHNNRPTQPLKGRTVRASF
T4 sequence (Q9Y2D0 37-296 limits assumed): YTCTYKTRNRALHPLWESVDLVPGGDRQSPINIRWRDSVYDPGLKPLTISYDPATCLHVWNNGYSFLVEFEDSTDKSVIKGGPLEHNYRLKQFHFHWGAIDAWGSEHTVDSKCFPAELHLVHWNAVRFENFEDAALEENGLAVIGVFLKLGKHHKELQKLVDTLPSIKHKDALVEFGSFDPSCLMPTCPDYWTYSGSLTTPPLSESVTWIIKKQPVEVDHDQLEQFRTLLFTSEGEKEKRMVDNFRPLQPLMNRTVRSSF

In the case of `CC1(C)C(/C=C/C2=C(Oc3cccc(CC(=O)NCCCOCCOCCOCCCNC(=O)CCS(=O)(=O)c4c(F)c(F)c(S(N)(=O)=O)c(F)c4NC4CCCCCCC4)c3)C(=C/C=C3\N(CCCCS(=O)(=O)[O-])c4ccccc4C3(C)C)/CCC2)=[N+](CCCCS(=O)(=O)[O-])c2ccccc21.[Na+]` [GZ21-19, Sodium 4-((Z)-2-((E)-2-(2-(3-(20-((2-(Cyclooctylamino)-3,5,6-trifluoro-4-sulfamoylphenyl)sulfonyl)-2,18-dioxo-7,10,13-trioxa-3,17-diazaicosyl)phenoxy)-3-((E)-2-(3,3-dimethyl-1-(4-sulfonatobutyl)-3H-indol-1-ium-2-yl)vinyl)cyclohex-2-en-1-ylidene)ethylidene)-3,3-dimethylindolin-1-yl)butane-1-sulfonate], the Kd on human recombinant CAI amounted to 10 µM; at human recombinant CAXIV, 0.1 µM; in series [1], 0.004 µM.
On to `CC1(C)C(/C=C/C2=C(Oc3ccc(CCC(=O)NCCOCCOCCOCCOCCOCCOCCOCCOCCOCCOCCOCCNC(=O)CCS(=O)(=O)c4c(F)c(F)c(S(N)(=O)=O)c(F)c4NC4CCCCCCC4)cc3)C(=C/C=C3\N(CCCCS(=O)(=O)[O-])c4ccccc4C3(C)C)/CCC2)=[N+](CCCCS(=O)(=O)[O-])c2ccccc21.[Na+]` [GZ22-4, Sodium 4-((Z)-2-((E)-2-(2-(4-(43-((2-(Cyclooctylamino)-3,5,6-trifluoro-4-sulfamoylphenyl)sulfonyl)-3,41-dioxo-7,10,13,16,19,22,25,28,31,34,37-undecaoxa-4,40-diazatritetracontyl)phenoxy)-3-((E)-2-(3,3-dimethyl-1-(4-sulfonatobutyl)-3H-indol-1-ium-2-yl)vinyl)cyclohex-2-en-1-ylidene)ethylidene)-3,3-dimethylindolin-1-yl)butane-1-sulfonate], for which the Kd came to 0.09 µM at human recombinant CAXIV and 0.0015 µM in series [1]. In addition, the “compound uptake in HeLaCAIX^WT tumors compared to HeLaCAIX^KO tumors” value in series [2] was “preferential uptake”. Also, the “clearance from nontumor locations” value in series [2] (I.V. 2 mg/kg, daily images) was “faster clearance from nontumor locations”.
Turning to `CC1(C)C(/C=C/C2=C(NCCCOCCOCCOCCCNC(=O)CCC(=O)NCCS(=O)(=O)c3c(F)c(F)c(S(N)(=O)=O)c(F)c3NC3CCCCCCC3)C(=C/C=C3\N(CCCCS(=O)(=O)[O-])c4ccccc4C3(C)C)/CCC2)=[N+](CCCCS(=O)(=O)[O-])c2ccccc21.[Na+]` [AZ21-6, Sodium 4-((Z)-2-((E)-2-(2-((1-((2-(Cyclooctylamino)-3,5,6-trifluoro-4-sulfamoylphenyl)sulfonyl)-4,7-dioxo-12,15,18-trioxa-3,8-diazahenicosan-21-yl)amino)-3-((E)-2-(3,3-dimethyl-1-(4-sulfonatobutyl)-3H-indol-1-ium-2-yl)vinyl)cyclohex-2-en-1-ylidene)ethylidene)-3,3-dimethylindolin-1-yl)butane-1-sulfonate], the Kd at human recombinant CAI was 20 µM; at human recombinant CAXIV, 0.1 µM; at human recombinant CAVB, 0.05 µM; in series [1], 0.015 µM. For the same molecule, the “compound uptake in HeLaCAIX^WT tumors compared to HeLaCAIX^KO tumors” value in series [2] was “preferential uptake”.
With `CC1(C)C(/C=C/C2=C(Oc3ccc(CCC(=O)NCCCOCCOCCOCCCNC(=O)CCS(=O)(=O)c4c(F)c(F)c(S(N)(=O)=O)c(F)c4NC4CCCCCCC4)cc3)C(=C/C=C3\N(CCCCS(=O)(=O)[O-])c4ccccc4C3(C)C)/CCC2)=[N+](CCCCS(=O)(=O)[O-])c2ccccc21.[Na+]` [GZ22-1, Sodium 4-((Z)-2-((E)-2-(2-(4-(21-((2-(Cyclooctylamino)-3,5,6-trifluoro-4-sulfamoylphenyl)sulfonyl)-3,19-dioxo-8,11,14-trioxa-4,18-diazahenicosyl)phenoxy)-3-((E)-2-(3,3-dimethyl-1-(4-sulfonatobutyl)-3H-indol-1-ium-2-yl)vinyl)cyclohex-2-en-1-ylidene)ethylidene)-3,3-dimethylindolin-1-yl)butane-1-sulfonate], the Kd came to 0.1 µM on human recombinant CAXIV and 0.006 µM in series [1].

The term Kd denotes a measure of binding affinity in units of concentration.
